The record followed here is the supplement of paper PMC10307832.

Common to all, as to assay: relative viability (nuclei count vs DMSO), 5 days (fraction); higher = more cells survive
Compound in assay [1]: CC(C)C[C@H](NC(=O)[C@H](Cc1ccccc1)NC(=O)c1cnccn1)B(O)O [Bortezomib] + CCNC(=O)c1noc(-c2cc(C(C)C)c(O)cc2O)c1-c1ccc(CN2CCOCC2)cc1 [Luminespib] (partner 0.01 µM)
The essentials:
(§1)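 One day after seeding in 1536-well plates, lung cancer cell lines were dosed by pin tool. Dosing was either single-drug or a fixed anchor-drug dose plus five library-drug doses (not always all listed) in √10 steps. After 5 days, nuclei were stained in one fix-and-stain step and counted on 4× images, and relative viability is the nuclei count of treated wells over that of vehicle wells, given as the median of duplicate plates.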

Compound in assay [2]: CC1=CC(=NN1)NC2=CC(=NC(=N2)/C=C/C3=CC=CC=C3)N4CCN(CC4)C + Cc1nc(Nc2ncc(C(=O)Nc3c(C)cccc3Cl)s2)cc(N2CCN(CCO)CC2)n1 [Dasatinib] (partner 0.075 µM)
The essentials:
as §1

Compound in assay [3]: CC1=CC(=NN1)NC2=CC(=NC(=N2)/C=C/C3=CC=CC=C3)N4CCN(CC4)C + Nc1ncn([C@H]2C[C@H](O)[C@@H](CO)O2)c(=O)n1 [Decitabine] (partner 2 µM)
In short, it runs like this: as §1

Compound in assay [4]: CC(C)C[C@H](NC(=O)[C@H](Cc1ccccc1)NC(=O)c1cnccn1)B(O)O [Bortezomib] + CS(=O)(=O)CCNCc1ccc(-c2ccc3ncnc(Nc4ccc(OCc5cccc(F)c5)c(Cl)c4)c3c2)o1 [Lapatinib] (partner 2 µM)
The essentials: as §1

For LCLC-103H, the relative viability in assay [1] (first compound 0.0002 µM) amounted to 0.902; in assay [1] (first compound 0.000632 µM), 0.955; in assay [1] (first compound 0.002 µM), 0.495; in assay [1] (first compound 0.006325 µM), 0.175; in assay [1] (first compound 0.02 µM), 0.152; in assay [2] (first compound 0.08 µM), 0.481. Further, the relative viability in assay [2] (first compound 0.253 µM) was found to be 0.483; in assay [2] (first compound 0.8 µM) it was 0.492; in assay [2] (first compound 2.53 µM) it was 0.459; in assay [2] (first compound 8 µM), 0.237; in assay [3] (first compound 0.08 µM) it was 0.746; in assay [3] (first compound 0.253 µM), 0.774. Moreover, the figures for the relative viability in assay [3] (first compound 0.8 µM), in assay [3] (first compound 2.53 µM) and in assay [3] (first compound 8 µM) were 0.72, 0.713 and 0.64, respectively.

As for NCI-H441, the relative viability amounted to 0.331 in assay [1] (first compound 0.0002 µM); 0.341 in assay [1] (first compound 0.000632 µM); 0.236 in assay [1] (first compound 0.002 µM); 0.159 in assay [1] (first compound 0.006325 µM); 0.168 in assay [1] (first compound 0.02 µM); 0.526 in assay [2] (first compound 0.08 µM). In addition, the relative viability in assay [2] (first compound 0.253 µM) was 0.443; in assay [2] (first compound 0.8 µM), 0.61; in assay [2] (first compound 2.53 µM) it was 0.159; in assay [2] (first compound 8 µM) it was 0.117; in assay [3] (first compound 0.08 µM), 0.233; in assay [3] (first compound 0.253 µM), 0.222. Also, the relative viability came to 0.223 in assay [3] (first compound 0.8 µM), 0.172 in assay [3] (first compound 2.53 µM) and 0.12 in assay [3] (first compound 8 µM).

Regarding NCI-H522, the relative viability stood at 0.983 in assay [1] (first compound 0.0002 µM); 0.97 in assay [1] (first compound 0.000632 µM); 0.959 in assay [1] (first compound 0.002 µM); 0.745 in assay [1] (first compound 0.006325 µM); 0.367 in assay [1] (first compound 0.02 µM); 0.94 in assay [2] (first compound 0.08 µM). Also, the relative viability in assay [2] (first compound 0.253 µM) amounted to 0.795; in assay [2] (first compound 0.8 µM), 0.662; in assay [2] (first compound 2.53 µM), 0.482; in assay [2] (first compound 8 µM), 0.388; in assay [3] (first compound 0.08 µM) it was 0.593; in assay [3] (first compound 0.253 µM) it was 0.685. The relative viability in assay [3] (first compound 0.8 µM) came to 0.69; in assay [3] (first compound 2.53 µM), 0.601; in assay [3] (first compound 8 µM), 0.391.

For the cell line NCI-H1299, the relative viability in assay [4] (first compound 0.0002 µM) worked out at 0.959; in assay [4] (first compound 0.000632 µM), 0.93; in assay [4] (first compound 0.002 µM), 0.933; in assay [4] (first compound 0.006325 µM), 0.463; in assay [4] (first compound 0.02 µM) it was 0.16.

As to NCI-H1563, the relative viability in assay [1] (first compound 0.0002 µM) came to 0.47; in assay [1] (first compound 0.000632 µM) it was 0.527; in assay [1] (first compound 0.002 µM), 0.562; in assay [1] (first compound 0.006325 µM), 0.449; in assay [1] (first compound 0.02 µM), 0.331; in assay [2] (first compound 0.08 µM) it was 0.462. The relative viability in assay [2] (first compound 0.253 µM) came out at 0.463; in assay [2] (first compound 0.8 µM) it was 0.497; in assay [2] (first compound 2.53 µM), 0.432; in assay [2] (first compound 8 µM) it was 0.288; in assay [4] (first compound 0.0002 µM), 0.809; in assay [4] (first compound 0.000632 µM) it was 0.869. Besides, the relative viability stood at 0.684 in assay [4] (first compound 0.002 µM), 0.506 in assay [4] (first compound 0.006325 µM) and 0.481 in assay [4] (first compound 0.02 µM).

With NCI-H1623, the relative viability in assay [1] (first compound 0.0002 µM) stood at 0.498; in assay [1] (first compound 0.000632 µM), 0.496; in assay [1] (first compound 0.002 µM), 0.551; in assay [1] (first compound 0.006325 µM), 0.364; in assay [1] (first compound 0.02 µM), 0.277; in assay [2] (first compound 0.08 µM), 0.469. Also, the relative viability worked out at 0.559 in assay [2] (first compound 0.253 µM), 0.614 in assay [2] (first compound 0.8 µM), 0.494 in assay [2] (first compound 2.53 µM) and 0.543 in assay [2] (first compound 8 µM).

For NCI-H1648, the relative viability was determined as 0.417 in assay [3] (first compound 0.08 µM); 0.552 in assay [3] (first compound 0.253 µM); 0.606 in assay [3] (first compound 0.8 µM); 0.294 in assay [3] (first compound 2.53 µM); 0.463 in assay [3] (first compound 8 µM).

As for NCI-H1703, the relative viability in assay [4] (first compound 0.0002 µM) is 1.23; in assay [4] (first compound 0.000632 µM), 0.947; in assay [4] (first compound 0.002 µM) it was 0.184; in assay [4] (first compound 0.006325 µM), 0.135; in assay [4] (first compound 0.02 µM), 0.145.

In the case of NCI-H2228, the relative viability turned out to be 0.129 in assay [1] (first compound 0.0002 µM); 0.117 in assay [1] (first compound 0.000632 µM); 0.137 in assay [1] (first compound 0.002 µM); 0.0914 in assay [1] (first compound 0.006325 µM); 0.093 in assay [1] (first compound 0.02 µM); 0.448 in assay [2] (first compound 0.08 µM). The relative viability came to 0.539 in assay [2] (first compound 0.253 µM); 0.369 in assay [2] (first compound 0.8 µM); 0.0563 in assay [2] (first compound 2.53 µM); 0.0381 in assay [2] (first compound 8 µM); 0.986 in assay [4] (first compound 0.0002 µM); 0.816 in assay [4] (first compound 0.000632 µM). In addition, the relative viability in assay [4] (first compound 0.002 µM) was 0.438; in assay [4] (first compound 0.006325 µM), 0.115; in assay [4] (first compound 0.02 µM) it was 0.119.

Turning to NCI-H2342, the relative viability is 1.01 in assay [1] (first compound 0.0002 µM); 0.748 in assay [1] (first compound 0.000632 µM); 0.699 in assay [1] (first compound 0.002 µM); 0.791 in assay [1] (first compound 0.006325 µM); 0.382 in assay [1] (first compound 0.02 µM); 0.314 in assay [2] (first compound 0.08 µM). The relative viability in assay [2] (first compound 0.253 µM) worked out at 0.298; in assay [2] (first compound 0.8 µM) it was 0.322; in assay [2] (first compound 2.53 µM), 0.249; in assay [2] (first compound 8 µM), 0.218; in assay [3] (first compound 0.08 µM), 0.753; in assay [3] (first compound 0.253 µM), 0.774. Moreover, the relative viability in assay [3] (first compound 0.8 µM) worked out at 0.662; in assay [3] (first compound 2.53 µM), 0.703; in assay [3] (first compound 8 µM), 0.641.

On to SW 900, for which the relative viability worked out at 0.167 in assay [1] (first compound 0.0002 µM); 0.198 in assay [1] (first compound 0.000632 µM); 0.184 in assay [1] (first compound 0.002 µM); 0.163 in assay [1] (first compound 0.006325 µM); 0.16 in assay [1] (first compound 0.02 µM); 0.644 in assay [2] (first compound 0.08 µM). Also, the relative viability in assay [2] (first compound 0.253 µM) amounted to 0.585; in assay [2] (first compound 0.8 µM), 0.413; in assay [2] (first compound 2.53 µM), 0.418; in assay [2] (first compound 8 µM), 0.0713; in assay [3] (first compound 0.08 µM), 0.426; in assay [3] (first compound 0.253 µM) it was 0.377. Further, the relative viability in assay [3] (first compound 0.8 µM) was 0.413; in assay [3] (first compound 2.53 µM), 0.277; in assay [3] (first compound 8 µM), 0.139.
